DBAASP
Converted amounts (≈) assume the structure as drawn. “And” between values parts separate entries of the source, which are not always exact repeats. Equal values may be shown once. Each block holds one compound with its values, some of them ahead of it.

Tests used:
Experiment in all cases: ≥ marks a high value that may be exact or a test limit, other limits are often not marked, values filed in µg/mL are converted to µM
[1] = system: Staphylococcus aureus DSM 2569
[2] = system: Escherichia coli D31
[3] = system: Listeria fleischmannii DSM 24998
[4] = system: Listeria grayi DSM 20601
[5] = system: Micrococcus luteus DSM 20030
[6] = system: Listeria monocytogenes DSM 20600
[7] = system: Candida albicans ATCC 36232
[8] = system: Escherichia coli ATCC 2592
[9] = system: Staphylococcus aureus ATCC 6538
[10] = system: Staphylococcus aureus 1550
[11] = system: Micrococcus luteus ATCC 9341
[12] = system: Pseudomonas aeruginosa ATCC 9027
[13] = system: Escherichia coli ATCC 25922
[14] = system: Acinetobacter baumannii ATCC 15308
[15] = system: Klebsiella pneumoniae
[16] = system: Staphylococcus aureus ATCC 25923
[17] = system: Staphylococcus aureus
[18] = system: Streptococcus pneumoniae
[19] = system: Enterobacter cloacae
[20] = system: Pseudomonas aeruginosa ATCC 15442
[21] = system: Citrobacter sp.
[22] = system: Pseudomonas aeruginosa CCARM 2002
[23] = system: Bacillus subtilis KCTC 3028
[24] = system: Staphylococcus aureus CCARM 3126
[25] = system: Acinetobacter baumannii KCTC 2508
[26] = system: Staphylococcus epidermidis KCTC 1917
[27] = system: Salmonella typhimurium CCARM 8003
[28] = system: Staphylococcus aureus KCTC 1621
[29] = system: Escherichia coli CCARM 1229
[30] = system: Staphylococcus aureus CCARM 3089
[31] = system: Escherichia coli KCTC 1682
[32] = system: Pseudomonas aeruginosa KCTC 1637
[33] = system: Salmonella typhimurium KCTC 1926
[34] = system: Staphylococcus aureus CCARM 3108
[35] = system: Acinetobacter baumannii CCARM 12036
[36] = system: Salmonella typhimurium CCARM 8007
[37] = system: Escherichia coli CCARM 1238
[38] = system: Acinetobacter baumannii CCARM 12035
[39] = system: Pseudomonas aeruginosa CCARM 2095
[40] = system: Streptococcus sobrinus ATCC 6715
[41] = system: Streptococcus mutans UA159
[42] = system: Streptococcus sanguinis ATCC 10556
[43] = system: Klebsiella pneumoniae KCTC 2208
[44] = system: Bacillus cereus KCTC 1012
[45] = system: Streptococcus sp.
[46] = system: Acinetobacter baumannii
[47] = system: Staphylococcus epidermidis
[48] = system: Staphylococcus saprophyticus
[49] = system: Streptococcus pyogenes
[50] = system: Escherichia coli
[51] = system: Bacillus subtilis KCTC 2217

Compound: CC(C)[C@H](NC(=O)[C@H](CCCCN)NC(=O)[C@@H](NC(=O)[C@H](CCCCN)NC(=O)[C@H](Cc1ccccc1)NC(=O)[C@H](CCCCN)NC(=O)[C@@H](NC(=O)[C@H](CCCCN)NC(=O)[C@@H](N)Cc1ccccc1)C(C)C)C(C)C)C(=O)N[C@@H](CCCCN)C(=O)O [FKVKFKVKVK]
- MIC [7]: 5 µM and 8 µM
- MIC [8]: 10 µM (≈ 12.5 µg/mL)
- MIC [9]: 7.2 µM (≈ 9 µg/mL)
- MIC [10]: 8.8 µM (≈ 11 µg/mL)
- MIC [11]: 4 µM (≈ 5 µg/mL)
- MIC [12]: 4.8 µM (≈ 6 µg/mL)

Compound: CC[C@H](C)[C@H](NC(=O)[C@H](CC(C)C)NC(=O)CNC(=O)CNC(=O)[C@H](CC(C)C)NC(=O)[C@@H](N)Cc1ccccc1)C(=O)N[C@@H](CCCCN)C(=O)N[C@@H](CCCCN)C(=O)N[C@@H](Cc1c[nH]c2ccccc12)C(=O)N1CCC[C@H]1C(=O)N[C@@H](Cc1c[nH]c2ccccc12)C(=O)N[C@@H](Cc1c[nH]c2ccccc12)C(=O)N1CCC[C@H]1C(=O)N[C@@H](Cc1c[nH]c2ccccc12)C(=O)N[C@@H](CCCN=C(N)N)C(=O)N[C@@H](CCCN=C(N)N)C(N)=O [FLGGLIKKWPWWPWRR]
- MIC [13]: 3.67 µM (≈ 7.81 µg/mL)
- MIC [14]: 14.7 µM (≈ 31.2 µg/mL)
- MIC [15]: > 118 µM
- MIC [16]: 3.67 µM (≈ 7.81 µg/mL)
- MIC [17]: 3.67 µM (≈ 7.81 µg/mL)
- MIC [18]: 3.67 µM (≈ 7.81 µg/mL)
- MIC [19]: ≥ 118 µM
- MIC [20]: 14.7 µM (≈ 31.2 µg/mL)
- MIC [21]: ≥ 118 µM

Compound: CC[C@H](C)[C@H](NC(=O)[C@H](Cc1ccccc1)NC(=O)[C@H](CCCCN)NC(=O)[C@H](CC(C)C)NC(=O)[C@H](C)NC(=O)[C@H](CO)NC(=O)[C@H](CC(C)C)NC(=O)[C@H](Cc1c[nH]c2ccccc12)NC(=O)[C@@H](N)C(C)C)C(=O)NCC(=O)N[C@@H](CCCCN)C(=O)N[C@@H](Cc1cnc[nH]1)C(=O)N[C@@H](CC(C)C)C(=O)N[C@@H](C)C(=O)N[C@@H](CCCCN)C(=O)N[C@@H](Cc1cnc[nH]1)C(=O)N[C@@H](CCC(N)=O)C(=O)N[C@@H](CC(C)C)C(=O)N[C@@H](CO)C(=O)N[C@@H](CCCCN)C(=O)N[C@@H](CC(C)C)C(N)=O [VWLSALKFIGKHLAKHQLSKL]
- MIC [13]: 1 µM (≈ 2.42 µg/mL)
- MIC [43]: 2 µM (≈ 4.83 µg/mL)
- MIC [15]: 50 µM (≈ 121 µg/mL)
- MIC [25]: 2 µM (≈ 4.83 µg/mL)
- MIC [44]: 2 µM (≈ 4.83 µg/mL)
- MIC [16]: 1 µM and > 0.5 µM
- MIC [17]: 3.1 µM and 1.41 µM
- MIC [45]: 3.1 µM (≈ 7.49 µg/mL)
- MIC [46]: 4.42 µM and 12.5 µM
- MIC [47]: 3.1 µM (≈ 7.49 µg/mL)
- MIC [48]: 3.1 µM (≈ 7.49 µg/mL)
- MIC [49]: ≥ 50 µM
- MIC [50]: 12.5 µM (≈ 30.2 µg/mL)
- MIC [51]: 1 µM (≈ 2.42 µg/mL)

The next lines start with the values.

- MIC [1]: 15 µM (≈ 21.4 µg/mL)
- MIC [2]: 8 µM (≈ 11.4 µg/mL)
- MIC [3]: 4 µM (≈ 5.71 µg/mL)
- MIC [4]: 15 µM (≈ 21.4 µg/mL)
- MIC [5]: 8 µM (≈ 11.4 µg/mL)
- MIC [6]: 8 µM (≈ 11.4 µg/mL)
Compound: CC[C@H](C)[C@H](NC(=O)CNC(=O)[C@H](CO)NC(=O)[C@H](CC(C)C)NC(=O)[C@H](CC(C)C)NC(=O)[C@H](C)NC(=O)[C@H](CO)NC(=O)[C@H](Cc1ccccc1)NC(=O)[C@@H](N)Cc1ccccc1)C(=O)N[C@@H](CCCCN)C(=O)N[C@@H](CO)C(=O)N[C@@H](CC(C)C)C(=O)N[C@@H](Cc1ccccc1)C(N)=O [FFSALLSGIKSLF]

- MIC [22]: 16 µM (≈ 43.8 µg/mL)
- MIC [23]: ≥ 64 µM
- MIC [24]: ≥ 64 µM
- MIC [25]: 16 µM (≈ 43.8 µg/mL)
- MIC [26]: ≥ 64 µM
- MIC [27]: 16 µM (≈ 43.8 µg/mL)
- MIC [28]: ≥ 64 µM
- MIC [29]: ≥ 32 µM
- MIC [30]: ≥ 64 µM
- MIC [31]: 16 µM (≈ 43.8 µg/mL)
- MIC [32]: 8 µM (≈ 21.9 µg/mL)
- MIC [33]: 16 µM (≈ 43.8 µg/mL)
- MIC [34]: ≥ 64 µM
- MIC [35]: 16 µM (≈ 43.8 µg/mL)
- MIC [36]: 16 µM (≈ 43.8 µg/mL)
- MIC [37]: 16 µM (≈ 43.8 µg/mL)
- MIC [38]: 16 µM (≈ 43.8 µg/mL)
- MIC [39]: 16 µM (≈ 43.8 µg/mL)
Compound: CC[C@H](C)[C@H](NC(=O)[C@H](C)NC(=O)[C@H](CCC(=O)O)NC(=O)[C@H](Cc1cnc[nH]1)NC(=O)[C@@H](NC(=O)[C@@H]1CCCN1C(=O)[C@H](CCC(N)=O)NC(=O)[C@H](Cc1ccccc1)NC(=O)[C@@H](NC(=O)[C@H](CCCCN)NC(=O)[C@H](CCCCN)NC(=O)[C@H](CC(C)C)NC(=O)[C@H](C)NC(=O)[C@H](CC(N)=O)NC(=O)[C@H](CC(C)C)NC(=O)CN)C(C)C)[C@@H](C)CC)C(=O)N[C@@H](CCCCN)C(=O)N[C@@H](CCCCN)C(=O)N[C@H](C(=O)N[C@@H](CC(N)=O)C(=O)N[C@@H](CC(N)=O)C(=O)N[C@@H](Cc1cnc[nH]1)C(=O)N[C@H](C(=O)N[C@@H](CCC(N)=O)C(=O)O)C(C)C)[C@@H](C)CC [GLNALKKVFQPIHEAIKKINNHVQ]

- MIC [40]: ≥ 250 µM
- MIC [41]: ≥ 250 µM
- MIC [42]: ≥ 250 µM
Compound: CC(C)[C@H](NC(=O)[C@H](CCCN=C(N)N)NC(=O)[C@H](C)NC(=O)[C@H](C)NC(=O)[C@H](CCCCN)NC(=O)[C@H](CCCCN)NC(=O)[C@H](Cc1ccccc1)NC(=O)[C@H](Cc1ccccc1)NC(=O)[C@H](CCCN=C(N)N)NC(=O)CNC(=O)[C@H](Cc1c[nH]c2ccccc12)NC(=O)CN)C(=O)NCC(=O)N[C@@H](CCCCN)C(=O)N[C@@H](CCCN=C(N)N)C(=O)N[C@H](C(=O)NCC(=O)N[C@@H](CCCCN)C(=O)O)C(C)C [GWGRFFKKAARVGKRVGK]
